A short description of data set [1]: Dose titration on food intake and blood glucose (FIGS. 20-25). Type of data set: in vivo.
The test system of data set [2] is GPL-1 receptor knock out mice. Put plainly: Glucose tolerance test and food intake in GLP-1 receptor knock out mice. It is filed as in vivo. As to conditions: GLP-1 knock out mice; 3 nmol/kg; FIG. 28. From the text:
FIG. 26 is a graph of a glucose tolerance test conducted on wild type mice (solid lines) and on GPL-1 receptor knock out mice (dashed lines).

The target in data set [3] is insulin subtype A receptor (Homo sapiens, UniProt P06213). In words: In vitro activity at insulin subtype A receptor. It is filed as cell-based. As to conditions: FIG. 1A.
The next data set addresses T1, insulin receptor (IR-B) (Homo sapiens, UniProt P06213).
T1 construct: expressed in transfected cells
Put plainly: In vitro activity at insulin B receptor (IR-B). Type of data set: cell-based. As to conditions: FIG. 1B. As to the method:
Color development was stopped 5 min later by adding 0.05 ml 1 N HCl. Absorbance at 450 nm was measured on Titertek Multiscan MCC340 (ThermoFisher, Pittsburgh, Pa.). […] Structures associated with the abbreviated lipidated groups designated in Table 4 are as follows: […]

A further data set relates to normal mice. Put plainly: Blood glucose after single administration to normal mice. It is filed as in vivo. As to conditions: 50 nmoles/kg, FIG. 8. As to the method: Six- to eight-week-old male C57BL/6 mice were maintained at 23° C., constant humidity, and a 12-h light-dark cycle. The acute in vivo effects of select peptides were evaluated by subcutaneously injecting peptides solubilized in physiologically buffered saline or a vehicle control to normal or diabetic mice. Blood glucose was measured at various time points through the course of a 24 hr period following administration of the peptides. Each group of mice contained 8 animals per group. The average body weight was ˜25 g. Mice were made diabetic by administration of streptozotocin.

For data set [4] the following is noted: particularly at physiological pH; cited from earlier work.
For a further data set, the target named is T2, GIP receptor (Homo sapiens, UniProt P48546).
T2 construct: expressed in transfected cells; host or cells: HEK293
T2 sequence (P48546 22-466): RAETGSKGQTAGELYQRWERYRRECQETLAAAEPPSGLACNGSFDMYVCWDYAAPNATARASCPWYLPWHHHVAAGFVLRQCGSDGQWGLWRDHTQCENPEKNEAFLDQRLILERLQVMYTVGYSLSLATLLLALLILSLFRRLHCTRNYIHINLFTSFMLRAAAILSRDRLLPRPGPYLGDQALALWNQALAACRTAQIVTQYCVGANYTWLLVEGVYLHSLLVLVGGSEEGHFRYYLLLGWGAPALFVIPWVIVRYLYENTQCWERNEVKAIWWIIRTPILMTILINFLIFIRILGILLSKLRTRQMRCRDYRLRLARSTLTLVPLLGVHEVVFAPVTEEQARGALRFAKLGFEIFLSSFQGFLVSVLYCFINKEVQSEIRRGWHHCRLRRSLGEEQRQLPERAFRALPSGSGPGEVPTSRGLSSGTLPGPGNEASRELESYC
The conditions noted are these: general statement; cited from earlier work.

Non-standard residues stand in square brackets, D forms with d. No end group written: not given here. Aib = CC(C)(N)C(=O)O

Consider 4 substances from patent US10232020B2, “Incretin-insulin conjugates” (priority 2014, dated 2019).

Take “CIU-093: XEGTFTSDUSIYLDKQAAXEFVNWLLAGGPSSGAPPPS (SEQ ID NO: 1996); C(S-S)—CH2CH2CH2-B^1 Insulin”: the results for the food intake entry in data set [1] (FIG. 22) and in data set [2] were “does not suppress food intake” and “no reduction in food intake”, respectively. Also, the blood glucose entry in data set [1] (FIG. 25) is “a much higher dosage is required to get the same glucose lowering”.
In the case of “GLP-DP8: GLP-1/insulin fusion, SEQ ID NO: 700; GLP-1 agonist peptide fused to the N-terminus of a single chain insulin analog (HAEGTFTSDVSSYLEEQAAREFIAWLVRGRG; GLP-1 analog)”, the “potency at the A receptor” value in data set [3] is “about 2.07 nanomoles”. Besides, the “potency at the insulin B receptor” value with insulin receptor (IR-B) is listed as “about 9.9 nanomoles”.
On to “IUB-48: GLP-1 agonist, HXEGTFTSDVSSYLEEQAAKEFIAWLVKGGPSSGAPPPS (SEQ ID NO: 1932) (H[Aib]EGTFTSDVSSYLEEQAAKEFIAWLVKGGPSSGAPPPS)”, for which, in the data set with normal mice, the blood glucose levels entry was “about 60 mg/dL”.
Turning to “Native glucagon: peptide consisting of the sequence of SEQ ID NO: 701”, the “solubility in aqueous solution” value in data set [4] was “poor solubility in aqueous solution”. Besides, in the data set with GIP receptor, the “activation of the GIP receptor” value is listed as “does not activate the GIP receptor”.
